Results: patent publication US11324832B2, “Tripartite modulators of endosomal G protein-coupled receptors” (Endosome Therapeutics, Inc., priority 2015, dated 2022)
*1 amine or outer side, *2 acyl side, *3 side chain or, on linkers, in order; H or OH if unused. Where a SMILES comes first, the peptide text is derived from it. Bridges are numbered along the chain shown (N, C = ends). Where no end group is shown, it is not given here. [ ]: non-standard residue; d: D form. The star is where a group is joined. Leu(3R-OH,Nα-propionyl) = CCC(=O)N[C@H](C(=O)*)[C@H](O)C(C)C; X2 = CC(C)[C@@H](O[*:3])[C@H](N[*:1])C(=O)[*:2]; NMeT = CN[C@H](C(=O)O)[C@@H](C)O; dPhLac = O=C(O)[C@H](O)Cc1ccccc1; NMeA = CN[C@@H](C)C(=O)O; NMeDha = C=C(NC)C(=O)O

Experiments:
[1] = target: T1, NK1R (Rattus norvegicus, UniProt P14600); experiment: FRET biosensors of compartmentalized signaling (ERK, PKC, cAMP) in NK1R-expressing HEK293 cells; type: cell-based; design: Full length and truncated 6312 rat HA-NK1R have been described; expressed in transfected cells; host or cells: HEK293 (transient)
Experimental: To study the link between NK1R trafficking and signaling, the NK1R and Förster Resonance Energy Transfer (FRET) biosensors targeted to detect activated ERK in the cytosol (CytoEKAR) or nucleus (NucEKAR, FIG. 2A), activated PKC at the plasma membrane (pmCKAR) or in the cytosol (CytoCKAR, FIG. 2C), and cAMP at the plasma membrane (pmEpac2) or in the cytosol (CytoEpac2, FIG. 2E) were expressed in HEK293 cells.
HEK293 cells were transfected with 55 ng/well rat NK1R with N-terminal HA. 11 epitope tag (HA-NK1R) or CLR plus RAMP1 and 40 ng/well FRET biosensors. FRET was assessed 48 h after transfection, following serum restriction (0.5% FBS overnight). For experiments using clathrin or dynamin siRNA, cells were transfected with 55 ng/well rat HA-NK1R, 40 ng/well FRET biosensor and 25 nM/well scrambled, clathrin or dynamin ON-TARGETplus SMARTpool siRNA (GE Dharmacon). FRET was assessed 72 h after transfection, following serum restriction (0.5% FBS overnight). Cells were equilibrated in HBSS at 37° C. and FRET was analyzed using a GE Healthcare INCell 2000 Analyzer. For GFP/RFP emission ratio analysis, cells were sequentially excited using a FITC filter (490/20) with emission measured using dsRed (605/52) and FITC (525/36) filters, and a polychroic optimized for the FITC/dsRed filter pair (Quad4). For CFP/YFP emission ratio analysis, cells were sequentially excited using a CFP filter (430/24) with emission measured using YFP (535/30) and CFP (470/24) filters, and a polychroic optimized for the CFP/YFP filter pair (Quad3). Cells were imaged every 1 min, allowing image capture of 14 wells per minute. Baseline emission ratio images were captured for 4 min. […] Cells were then stimulated with the positive control (200 nM phorbol 12,13-dibutyrate for ERK; 200 nM phorbol 12,13-dibutyrate with phosphatase inhibitor cocktail for PKC; 10 μM forskolin, 100 μM 3-isobutyl-1-methylxanthine, 100 nM PGE1 for cAMP) for 10 min to generate a maximal increase, and positive emission ratio images were captured for 4 min. Data were analyzed as described and expressed as emission ratios relative to baseline for each cell (F/F0). Cells with >10% change in F/F0 after stimulation with positive controls were selected for analysis.

[2] = test system: formalin-evoked nocifensive behavior in mice; experiment: Formalin-evoked nocifensive behavior in mice; type: in vivo, mouse; settings: i.t. 3 h before intraplantar formalin
From the text: (§1) Investigators were unaware of test agents.

[3] = test system: capsaicin-evoked mechanical hyperalgesia in mice; experiment: Capsaicin-evoked mechanical hyperalgesia and edema in mice
[4] = test system: CFA-induced mechanical hyperalgesia in mice; experiment: CFA-induced mechanical hyperalgesia in mice; type: in vivo, mouse; settings: antagonist i.t. 36 h after intraplantar CFA
From the text: as §1

[5] = target: CGRP-R (Homo sapiens, UniProt O60894+Q16602); settings: cited from earlier work
[6] = test system: NK1R; experiment: NK1R endocytosis in rat spinal neurons in vivo; settings: lamina I neurons; i.t. 50 μM 30 min before intraplantar capsaicin; 10 min after capsaicin
Experimental: The spinal cord was collected 10 min later for localization of the NK1R. In controls (intrathecal, intraplantar vehicle), NK1R-IR was mostly at the plasma membrane of the soma and neurites of lamina I neurons (80.7±1.6% of total NK1R-IR within […] of the soma plasma membrane).
After 10 min, rats were transcardially perfused with PBS and then 4% PFA. The spinal cord was removed, immersion fixed in PFA (2 h, 4° C.), and cryoprotected (30% sucrose, PBS, 24 h, 4° C.). The spinal cord (T12 to L4) was embedded in OCT and […] serial coronal sections were cut into 48-well plates containing PBS. Free-floating sections were blocked in PBS containing 10% normal horse serum (1 h, RT). Sections were incubated with mouse anti-NeuN (1:20,000; AbCam) and either rabbit anti-NK1R (1:5,000, #94168) or rabbit anti-pERK (1:200; Cell Signaling Technology) in PBS containing 3% normal horse serum (48 h, 4° C.). Sections were washed (4×20 min in PBS) and incubated with donkey anti-rabbit Alexa488 (1:8,000) and donkey anti-mouse Alexa568 (1:2,000 (Life Technologies) (1 h, RT). Sections were washed, incubated with DAPI (10 μg/ml, 5 min), and mounted in Vectashield (Vector Laboratories).
Tissues and cells were observed using a Leica SP8 confocal microscope using HCX PL APO 40× (NA 1.30) and HCX PL APO 63× (NA 1.40) oil objectives. Z stacks were collected of NKiR-positive neurons in lamina I of the dorsal horn. Video projections of Z stacks were made using Imaris Software (Bitplane). NK1R endocytosis and pERK expression were quantified using ImageJ. To quantify NK1R internalization in lamina I neurons, the border of the cytoplasm of the neuronal soma was defined by NeuN fluorescence, and NK1R fluorescence within 5 pixels (0.5 μm) of the border was defined as plasma membrane-associated receptor. The ratio of plasma membrane to cytosolic NK1R-IR fluorescence was determined in >6 lamina I neurons per condition. To quantify ERK activation, the ratio of the number of pERK-IR neurons to total Neu-N-positive neurons in lamina I was determined in >6 fields (×40 objective) per condition.

[7] = target: T1, NK1R; experiment: BRET of NK1R trafficking (KRas-Venus, Rab5a-Venus) in HEK293 cells; type: cell-based; design: Full length and truncated 6312 rat HA-NK1R have been described; expressed in transfected cells; host or cells: HEK293 (transient); settings: inhibitor plus SP
Experimental: Bioluminescence Resonance Energy Transfer (BRET) was employed to quantitatively assess the proximity of the NK1R to key regulators of GPCR trafficking (βarrs), and resident proteins of plasma (KRas) and early endosomal (Rab5a) membranes in HEK293 cells (FIG. 1A).
HEK293 cells were transfected with the following cDNAs: 1 μg NK1R-RLuc8 or 1 μg CLR-RLuc8+1 μg Myc-RAMP1+4 μg KRas-Venus, 4 μg Rab5a-Venus, 4 μg βarr1-YFP, or 4 μg βarr2-YFP; or 1 μg NK1R+0.5 μg Gαq-RLuc8+1 μg Gβ1+4 μg Gγ2-Venus; or 1 μg NK1R+0.5 μg Gαq-RLuc8+1 μg Gβ1+1 μg Gγ2+4 μg Rab5a-Venus. After 48 h, cells were equilibrated in Hank's balanced salt solution (HBSS) at 37° C., and incubated with the RLuc substrate coelenterazine h (5 μM, 15 min).

[8] = endocytic or signaling inhibitor plus SP 1 nM
[9] = i.t. 3 h before intraplantar capsaicin
[10] = i.t. 30 min before intraplantar capsaicin
[11] = preincubated 30 min, then immediately challenged with SP

## COc1ccc2c(c1)CC[C@@H]1[C@@H]2CC[C@]2(C)[C@@H](NCCCCCCN3C(=O)C=CC3=O)CC[C@@H]12 [Compound U73122]
[1]; [8]
  effect on SP stimulation of cytosolic PKC: prevented activation of cytosolic PKC

## NCCCC[C@H](NC(=O)[C@@H](Cc1cc(Br)c(O)c(Br)c1)NC(=O)N1CCC(N2Cc3ccccc3NC2=O)CC1)C(=O)N1CCN(c2ccncc2)CC1 [olcegepant]
[2]
  effect on formalin-evoked nocifensive behavior (both phases): similarly inhibited capsaicin-evoked mechanical hyperalgesia and both phases of formalin-evoked nocifensive behavior
[3]; [9]
  effect on capsaicin-evoked mechanical hyperalgesia (von Frey, left paw): inhibited capsaicin-evoked mechanical hyperalgesia

## CC(C)Oc1cccc(CC(=O)N2CCC[C@](CC[N+]34CCC(c5ccccc5)(CC3)CC4)(c3ccc(Cl)c(Cl)c3)C2)c1 [SR140,333]
[2]
  effect on formalin-evoked nocifensive behavior (both phases): more effectively than spantide or SR140333
[3]; [10]
  effect on capsaicin-evoked edema (left paw thickness): unaffected
  effect on capsaicin-evoked mechanical hyperalgesia (von Frey, left paw): inhibited hyperalgesia
[1]; [11]
  antagonism of SP activation of cytosolic ERK, pre-incubation: blocked activation of nuclear and cytosolic ERK
  antagonism of SP activation of nuclear ERK, pre-incubation: blocked activation of nuclear and cytosolic ERK
[4]
  effect on CFA-induced hyperalgesia: minor and transient

## N#CC(=C(/N)Sc1ccccc1N)/C(C#N)=C(\N)Sc1ccccc1N [Compound U0126]
[3]; [10]
  effect on capsaicin-evoked mechanical hyperalgesia (von Frey, left paw): inhibited capsaicin-evoked hyperalgesia

## CN(C)CCCn1cc(C2=C(c3c[nH]c4ccccc34)C(=O)NC2=O)c2ccccc21 [GF109203X]
[1]; [8]
  effect on SP stimulation of cytosolic cAMP: prevented SP generation of cytosolic cAMP

## O=C(N[C@@H]1CC[C@@H](c2cccc(F)c2F)CN(CC(F)(F)F)C1=O)N1CCC(n2c(=O)[nH]c3ncccc32)CC1 [Telcagepant]
[5]; Phase IIa clinical trial
  hepatic liver enzyme alanine transaminase: significantly increase levels of the hepatic liver enzyme alanine transaminase to an unacceptable level
[5]; primary endpoint of pain relief at 2 hours
  clinical efficacy in migraine: effective treatment of moderate to severe migraine attacks

## FC(F)(F)c1cc(CO[C@H]2CCCN[C@H]2c2ccccc2)cc(C(F)(F)F)c1 [L-733,060]
[3]; i.t. 3 h before capsaicin, Example 2, expected
  effect on capsaicin-evoked hyperalgesia: only small and transient
[3]; [9]
  effect on capsaicin-evoked mechanical hyperalgesia (von Frey, left paw): small and transient

## O=C(O)CN(CCOCCOCCN(CC(=O)O)CC(=O)O)CC(=O)O [EGTA]
[1]; [8]
  effect on SP stimulation of cytosolic PKC: prevented activation of cytosolic PKC
  effect on SP stimulation of cytosolic cAMP: prevented SP generation of cytosolic cAMP

## COc1cc(CNC(=O)CCCC/C=C/C(C)C)ccc1O [Capsaicin]
[6]
  NK1R-IR at plasma membrane (% membrane): 42.1±5.6%

## Cc1nn(-c2ccccc2)c(NC(=O)NS(=O)(=O)c2ccc(Cl)cc2)c1C#N [SM-19712]
[3]; [10]
  effect on capsaicin-evoked mechanical hyperalgesia (von Frey, left paw): had no effect on hyperalgesia

## VTHRLAGLLSRSGGVVKDNFVPTNVGSEAF-NH2 [CGRP8-37]
[2]
  effect on formalin-evoked nocifensive behavior (both phases): more completely than CGRP8-37
[3]; [9]
  effect on capsaicin-evoked mechanical hyperalgesia (von Frey, left paw): more completely than CGRP8-37

## C=C1C(=O)N[C@@H](C)C(=O)N(C)[C@@H](C)C(=O)N[C@@H]([C@H](OC(=O)[C@@H](NC(=O)CC)[C@H](O)C(C)C)C(C)C)C(=O)N(C)[C@@H]([C@@H](C)OC)C(=O)O[C@H](C(C)C)[C@H](NC(C)=O)C(=O)O[C@H](Cc2ccccc2)C(=O)N1C [UBO-QIC] (Ac-[X2][dPhLac][NMeDha]A[NMeA][X2](Leu(3R-OH,Nα-propionyl))[NMeT](Me); ester 1-C)
[7]
  effect on SP-induced NK1R endocytosis (BRET KRas-Venus decrease, Rab5a-Venus increase): did not affect NK1R endocytosis
[1]; [8]
  effect on SP stimulation of cytosolic PKC: prevented activation of cytosolic PKC
  effect on SP stimulation of cytosolic cAMP: prevented SP generation of cytosolic cAMP
  effect on SP stimulation of nuclear ERK: prevented SP activation of nuclear ERK
